Consider 21 compounds from patent US6444670B2 (Wyeth, priority 1998, dated 2002).

Data set [1] relates to diabetic (ob/ob) mice. The experiment in a line: Blood glucose lowering in diabetic (ob/ob) mice. Format: in vivo, mouse. The following applies: for % Change Glucose from Vehicle: plasma glucose. The source says:
The procedures used and results obtained are briefly described below.
The non-insulin dependent diabetic (NIDDM) syndrome can be typically characterizes by obesity, hyperglycemia, abnormal insulin secretion, hyperinsulinemia and insulin resistance.
In each test procedure, mice [Male or female ob/ob (C57 B1/6J) and their lean litermates (ob/+ or +/+, Jackson Laboratories) ages 2 to 5 months (10 to 65 g)] of a similar age were randomized according to body weight into 4 groups of 10 mice. The mice were housed 5 per cage and are maintained on normal rodent chow with water ad libitum. Mice received test compound daily by gavage (suspended in 0.5 ml of 0.5% methyl cellulose); dissolved in the drinking water; or admixed in the diet. The dose of compounds given ranges from 2.5 to 200 mg/kg body weight/day. The dose is calculated based on the fed weekly body weight and is expressed as active moiety. […] Control mice received vehicle only.
On the morning of Day 4, 7 or 14 two drops of blood (approximetly 50 ul) were collected into sodium fluoride containing tubes either from the tail vein or after decapitation. For those studies in which the compound was administered daily by gavage the blood samples were collected 0 and 4 hours after compound administration. The plasma was isolated by centrifugation and the concentration of glucose is measured enzymatically on an Abbott V. P. Analyzer.
For each mouse, the percentage change in plasma glucose on Day 4, 7 or 14 is calculated relative to the mean plasma glucose of the vehicle treated mice. Analysis of variance followed by Dunett's Comparison Test (one-tailed) are used to estimate the significant difference between the plasma glucose values from the control group and the individual compound treated groups (CMS SAS Release 5.18).

Data set [2] deals with T1, Human recombinant PTP1B (hPTP1B) (Homo sapiens, UniProt P18031).
T1 construct: made in house
T1 sequence (P18031 1-435): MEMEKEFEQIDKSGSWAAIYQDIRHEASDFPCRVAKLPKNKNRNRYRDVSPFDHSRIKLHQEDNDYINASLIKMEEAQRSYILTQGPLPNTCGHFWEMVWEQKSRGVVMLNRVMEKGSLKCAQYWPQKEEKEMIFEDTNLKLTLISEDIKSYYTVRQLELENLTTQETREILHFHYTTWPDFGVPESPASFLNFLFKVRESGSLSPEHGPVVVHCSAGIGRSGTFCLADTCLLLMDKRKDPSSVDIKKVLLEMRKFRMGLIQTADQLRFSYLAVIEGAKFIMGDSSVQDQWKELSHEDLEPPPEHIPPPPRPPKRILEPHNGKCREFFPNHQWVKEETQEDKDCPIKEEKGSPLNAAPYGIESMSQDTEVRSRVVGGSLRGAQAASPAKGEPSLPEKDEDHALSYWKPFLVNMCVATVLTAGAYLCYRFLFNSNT
Format: biochemical.

Data set [3] relates to rat hepatic microsomal PTPases. The following applies: 50 μM compound.
Setting [4] is: dose 25 mg/Kg, (a) = no significant activity (p < 0.05) at this dose.
Where [5] appears, read: dose 10 mg/Kg, (a) = no significant activity (p < 0.05) at this dose.

On to `CC1(COc2ccc(CC3SC(=O)NC3=O)cc2)CCCCC1` (stereo not shown) [Ciglitazone, 5-(4-(1-methylcyclohexylmethoxy)benzyl)-2,4-dione, reference compound], for which, in data set [1] (dose 100 mg/Kg), the “% Change Insulin from Vehicle” value is recorded as −39 ^ % and the “% Change Glucose from Vehicle” value is recorded as −43 ^ %.

As to `CC(=O)Oc1ccc(-c2c3ccccc3cc3sc(C)c(C)c23)cc1` [Example 6, Acetic Acid 4-(2,3-dimethyl-naphtho[2,3-b]thiophen-4-yl)-phenyl ester], the melting point (usually the temperature of the solid-liquid transition) is 147 to 150 °C.

`CC(=O)Oc1ccc(-c2c3ccccc3c(Br)c3sc(C)c(C)c23)cc1` [Example 7, Acetic Acid 4-(9-bromo-2,3-dimethyl-naphtho[2,3-b]thiophen-4-yl)-phenyl ester] yielded a melting point of 190 to 191 °C.

As for `Cc1sc2c(Br)c3ccccc3c(-c3ccc(O)cc3)c2c1C` [Example 8, 4-(9-Bromo-2,3-dimethyl-naphtho[2,3-b]thiophen-4-yl)-phenol], the melting point was 165 to 168 °C.

`Cc1sc2c(I)c3ccccc3c(-c3ccc(OS(C)(=O)=O)cc3)c2c1C` [Example 11, Methanesulfonic acid 4-(9-iodo-2,3-dimethyl-naphtho[2,3-b]thiophen-4-yl)-phenyl ester]: the melting point lay within 212 to 213 °C.

In turn, `Cc1sc2c(Sc3ccccc3)c3ccccc3c(-c3cc(Br)c(O)c(Br)c3)c2c1C` [Example 13, 2,6-Dibromo-4-(2,3-dimethyl-9-phenylsulfanyl-naphtho[2,3-b]thiophen-4-yl)-phenol] came in with a melting point of 237 to 239 °C.

Regarding `COC(=O)[C@@H](Cc1ccccc1)Oc1c(Br)cc(-c2c3ccccc3c(Br)c3sc(C)c(C)c23)cc1Br` [Example 28, (R)-2-[2,6-Dibromo-4-(9-bromo-2,3-dimethyl-naphtho[2,3-b]thiophen4-yl)-phenoxy]3-phenyl-propionic acid methyl ester], the melting point was 174 to 175 °C.

In the case of `Cc1sc2c(Br)c3ccccc3c(-c3cc(Br)c(O[C@H](Cc4ccccc4)C(=O)O)c(Br)c3)c2c1C` [Example 29, (R)-2-[2,6-Dibromo-4-(9-bromo-2,3-dimethyl-naphtho[2,3-b]thiophen-4-yl)-phenoxy]3-phenyl-propionic acid], in data set [2], the IC50 (usually the concentration needed to halve the response being measured) is 115 nM. The results for the “% Change Insulin from Vehicle” value in data set [1] (dose 10 mg/Kg), in data set [1] (setting [4]) and in data set [1] (dose 100 mg/Kg) were −48.11 ^ %, −80.50 ^ % and −89.59 ^ %, respectively. For the same compound, the results for the “% Change Glucose from Vehicle” value in data set [1] (setting [5]), in data set [1] (setting [4]) and in data set [1] (dose 100 mg/Kg) were −18.6 (a) %, −38.18 ^ % and −48.63 ^ %, respectively. Also, in data set [3], the “% Change from Control” value was −83.54%.

With `Cc1sc2c(Br)c3ccccc3c(-c3cc(Br)c(O[C@H](CCc4ccccc4)C(=O)O)c(Br)c3)c2c1C` [Example 32, (R)-2-[2,6-Dibromo-4-(9-bromo-2,3-dimethyl-naphtho[2,3-b]thiophen-4-yl)-phenoxy]-4-phenyl-butyric acid], the IC50 in data set [2] amounted to 60 nM. Moreover, in data set [1] (setting [4]), the “% Change Insulin from Vehicle” value was −48.35 ^ % and the “% Change Glucose from Vehicle” value is on record as −15.68 (a) %. Further, the “% Change from Control” value in data set [3] was −89.41%.

Turning to `Cc1sc2c(Sc3ccccc3)c3ccccc3c(-c3cc(Br)c(O[C@H](Cc4ccccc4)C(=O)O)c(Br)c3)c2c1C` [Example 33, (R)-2-[2,6-dibromo-4-(2,3-dimethyl-9-phenylsulfanyl-naphtho[2,3-b]thiophen-4-yl)-phenoxy]-3-phenyl-propionic acid], the IC50 in data set [2] was 29 nM. In data set [1] (setting [4]), the “% Change Insulin from Vehicle” value is given as −39.3 ^ % and the “% Change Glucose from Vehicle” value is reported as −21.10 (a) %. Also, the “% Change from Control” value in data set [3] is recorded as −61.92%.

`Cc1c(CN2CCOCC2)sc2c(Br)c3ccccc3c(-c3cc(Br)c(OC(Cc4ccccc4)C(=O)O)c(Br)c3)c12` (stereo not shown) [Example 35, 2-[2,6-Dibromo-4-(9-bromo-3-methyl-2-morpholin-4-ylmethyl-naphtho[2,3-b]thiophen-4-yl)-phenoxy]-3-phenyl-propionic acid]: in data set [2], the IC50 is 273 nM. In data set [1] (setting [4]), the “% Change Insulin from Vehicle” value is reported as −2.98 (a) % and the “% Change Glucose from Vehicle” value is −25.58 ^ %. For the same compound, in data set [3], the “% Change from Control” value is −58.85%.

In the case of `Cc1sc2c(Br)c3ccccc3c(-c3cc(Br)c(O)c(C(C)C)c3)c2c1C` [Example 39, 2-Bromo-4-(9-bromo-2,3-dimethyl-naphtho[2,3-b]thiophen-4-yl)-6-isopropyl-phenol], the melting point lay in the range of 157 to 162 °C. Besides, the IC50 in data set [2] was determined as 1740 nM.

`Cc1sc2c(Br)c3ccccc3c(-c3cc(Br)c(O[C@H](Cc4ccccc4)C(=O)O)c(C(C)C)c3)c2c1C` [Example 40, (R)-2-[2-Bromo-4-(9-bromo-2,3-dimethyl-naphtho[2,3-b]thiophen-4-yl)-6-isopropyl-phenoxy]-3-phenyl-propionic acid]: the IC50 in data set [2] turned out to be 110 nM. In data set [1] (dose 100 mg/Kg), the “% Change Insulin from Vehicle” value is −90.80 ^ % and the “% Change Glucose from Vehicle” value is on record as −28.20 ^ %. Besides, the “% Change from Control” value in data set [3] is recorded as −83.88%.

Take `CCC(C)c1cc(-c2c3ccccc3c(Br)c3sc(C)c(C)c23)cc(Br)c1O[C@H](Cc1ccccc1)C(=O)O` (stereo partly drawn) [Example 42, (R)-2-[2-Bromo-4-(9-bromo-2,3-dimethyl-naphtho[2,3-b]thiophen-4-yl)-6-sec-butyl-phenoxy]-3-phenyl-propionic acid]: the IC50 in data set [2] came to 89 nM. Besides, in data set [1] (setting [4]), the “% Change Glucose from Vehicle” value is listed as −32.5 ^ %. Also, in data set [3], the “% Change from Control” value is given as −63.41%.

For `CCc1cc(-c2c3ccccc3c(Br)c3sc(C)c(C)c23)cc(Br)c1O[C@H](Cc1ccccc1)C(=O)O` [Example 43, (R)-2-[2-Bromo-4-(9-bromo-2,3-dimethyl-naphtho[2,3-b]thiophen-4-yl)-6-ethyl-phenoxy]-3-phenyl-propionic acid], the IC50 in data set [2] was found to be 171 nM. Also, the “% Change Glucose from Vehicle” value in data set [1] (setting [4]) is on record as −45.2 ^ %. In addition, the “% Change from Control” value in data set [3] is −78.84%.

On to `Cc1sc2c(Br)c3ccccc3c(-c3ccc(O[C@H](Cc4ccccc4)C(=O)O)c(C(C)C)c3)c2c1C` [Example 44, (R)-2-[4-(9-Bromo-2,3-dimethyl-naphtho[2,3-b]thiophen-4-yl)-6-isopropyl-phenoxy]-3-phenyl-propionic acid], for which the IC50 in data set [2] is 237 nM. Also, the “% Change Glucose from Vehicle” value in data set [1] (setting [4]) was −17.2 ^ %. In addition, the “% Change from Control” value in data set [3] was −68.50%.

Turning to `Cc1cc(-c2c3ccccc3c(Br)c3sc(C)c(C)c23)cc(C)c1O[C@H](Cc1ccccc1)C(=O)O` [Example 49, (R)-2-[4-(9-Bromo-2,3-dimethyl-naphtho[2,3-b]thiophen-4-yl)-2,6-dimethyl-phenoxy]-3-phenyl-propionic acid], the “% Change Glucose from Vehicle” value in data set [1] (setting [5]) is −35.1 ^ %. Also, the “% Change from Control” value in data set [3] is −89.36%.

Compound `Cc1sc2c(Br)c3ccccc3c(-c3cc(Br)c(O)c(NC(=O)OC(C)(C)C)c3)c2c1C` [Example 56, [3-Bromo-5-(9-bromo-2,3-dimethyl-naphtho[2,3-b]thiophen-4-yl)-2-hydroxy-phenyl]-carbamic Acid tert-Butyl Ester] had a melting point of 205 to 207 °C. The IC50 in data set [2] was 489 nM.

Compound `COc1c(N)cc(-c2c3ccccc3c(Br)c3sc(C)c(C)c23)cc1Br` [Example 58, 3-Bromo-5-(9-bromo-2,3-dimethyl-naphtho[2,3-b]thiophen-4-yl)-2-methoxy-phenylamine] yielded a melting point of 198 to 200 °C.

For `COC(=O)CNc1cc(-c2c3ccccc3c(Br)c3sc(C)c(C)c23)cc(Br)c1OC` [Example 59, [3-Bromo-5-(9-bromo-2,3-dimethyl-naphtho[2,3-b]thiophen-4-yl)-2-methoxy-phenylamino]-acetic Acid Methyl Ester], the melting point was in the range of 194 to 198 °C. In addition, the IC50 in data set [2] was 2200 nM.

For `CCc1cc(-c2c3ccccc3c(Br)c3sc(C)c(C)c23)cc(CC)c1O[C@H](Cc1ccccc1)C(=O)O` [Example 61, (R)-2-[4-(9-Bromo-2-,3-dimethyl-naphtho[2,3-b]thiophen-4-yl)-2,6-diethyl-phenoxy]-3-phenyl-propionic acid], in data set [2], the IC50 stood at 164 nM. Further, the “% Change Glucose from Vehicle” value in data set [1] (dose 10 mg/Kg, measured at 0 hour) is on record as −32.8 (c) %.
